Where two headings read alike, the source gives them in different places.
What was measured:
AR / CBP ternary complex = AR / CBP ternary complex (Homo sapiens, UniProt P10275+Q92793); assay: Ternary complex formation assay (sandwich ELISA, AR capture, CBP antibody detection) in VCaP cell lysates; assay type: cell-based
Outline: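 VCaP cells in 5% charcoal-stripped FBS were cultured ≥3 days and then given bifunctional compound for 1.5 h. Lysates went onto AR-antibody-coated plates. Bound CBP (or p300) was detected with a rabbit antibody plus HRP anti-rabbit, using QuantaRed chemifluorescence (ex 570/em 585) read immediately, at 5 min and at 15 min.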

VCaP cells = assay: VCaP growth inhibition assay (CTG); assay type: cell-based; settings: Homo sapiens, 216 h, 30 pM R1881, 9 days
Outline: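 VCaP cells in phenol red-free DMEM with 5% charcoal-stripped serum were stimulated with 30 pM R1881 (final) and treated with compound from 100 nM to 10 fM final (1:5 dilutions) for 9 days at 37 °C. Viability was read by CellTiter-Glo luminescence, and IC50 came from 4-parameter logistic fits.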

[1] = treated 1.5 hours, rabbit CBP or p300 antibody detection, average, read-out: Average Ternary Complex

AR / CBP ternary complex, sequence (P10275 whole entry): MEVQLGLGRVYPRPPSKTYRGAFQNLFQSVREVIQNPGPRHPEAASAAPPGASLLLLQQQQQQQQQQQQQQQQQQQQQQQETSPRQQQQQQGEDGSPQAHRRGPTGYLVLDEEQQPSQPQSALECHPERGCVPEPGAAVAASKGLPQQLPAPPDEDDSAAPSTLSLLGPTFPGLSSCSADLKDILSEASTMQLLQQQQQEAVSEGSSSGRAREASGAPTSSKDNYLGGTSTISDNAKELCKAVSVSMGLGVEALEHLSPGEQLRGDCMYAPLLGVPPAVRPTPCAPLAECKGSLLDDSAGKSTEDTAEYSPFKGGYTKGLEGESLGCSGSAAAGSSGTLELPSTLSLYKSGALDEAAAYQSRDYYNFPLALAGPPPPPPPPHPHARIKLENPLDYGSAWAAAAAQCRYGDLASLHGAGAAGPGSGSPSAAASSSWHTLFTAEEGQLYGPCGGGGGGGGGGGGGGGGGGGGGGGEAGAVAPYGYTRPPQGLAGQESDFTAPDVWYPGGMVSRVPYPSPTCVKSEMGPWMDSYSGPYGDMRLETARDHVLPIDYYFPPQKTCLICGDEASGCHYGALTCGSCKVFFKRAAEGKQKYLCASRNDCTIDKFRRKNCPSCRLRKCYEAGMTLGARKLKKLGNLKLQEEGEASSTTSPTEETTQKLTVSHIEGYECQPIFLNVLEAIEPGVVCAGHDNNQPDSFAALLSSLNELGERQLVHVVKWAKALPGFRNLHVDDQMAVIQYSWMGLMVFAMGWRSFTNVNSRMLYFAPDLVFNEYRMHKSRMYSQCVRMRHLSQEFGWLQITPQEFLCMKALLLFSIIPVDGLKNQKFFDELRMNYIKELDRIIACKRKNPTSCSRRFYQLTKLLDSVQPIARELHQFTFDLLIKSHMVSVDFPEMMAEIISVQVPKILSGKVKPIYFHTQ
AR / CBP ternary complex, sequence (Q92793 2-2442): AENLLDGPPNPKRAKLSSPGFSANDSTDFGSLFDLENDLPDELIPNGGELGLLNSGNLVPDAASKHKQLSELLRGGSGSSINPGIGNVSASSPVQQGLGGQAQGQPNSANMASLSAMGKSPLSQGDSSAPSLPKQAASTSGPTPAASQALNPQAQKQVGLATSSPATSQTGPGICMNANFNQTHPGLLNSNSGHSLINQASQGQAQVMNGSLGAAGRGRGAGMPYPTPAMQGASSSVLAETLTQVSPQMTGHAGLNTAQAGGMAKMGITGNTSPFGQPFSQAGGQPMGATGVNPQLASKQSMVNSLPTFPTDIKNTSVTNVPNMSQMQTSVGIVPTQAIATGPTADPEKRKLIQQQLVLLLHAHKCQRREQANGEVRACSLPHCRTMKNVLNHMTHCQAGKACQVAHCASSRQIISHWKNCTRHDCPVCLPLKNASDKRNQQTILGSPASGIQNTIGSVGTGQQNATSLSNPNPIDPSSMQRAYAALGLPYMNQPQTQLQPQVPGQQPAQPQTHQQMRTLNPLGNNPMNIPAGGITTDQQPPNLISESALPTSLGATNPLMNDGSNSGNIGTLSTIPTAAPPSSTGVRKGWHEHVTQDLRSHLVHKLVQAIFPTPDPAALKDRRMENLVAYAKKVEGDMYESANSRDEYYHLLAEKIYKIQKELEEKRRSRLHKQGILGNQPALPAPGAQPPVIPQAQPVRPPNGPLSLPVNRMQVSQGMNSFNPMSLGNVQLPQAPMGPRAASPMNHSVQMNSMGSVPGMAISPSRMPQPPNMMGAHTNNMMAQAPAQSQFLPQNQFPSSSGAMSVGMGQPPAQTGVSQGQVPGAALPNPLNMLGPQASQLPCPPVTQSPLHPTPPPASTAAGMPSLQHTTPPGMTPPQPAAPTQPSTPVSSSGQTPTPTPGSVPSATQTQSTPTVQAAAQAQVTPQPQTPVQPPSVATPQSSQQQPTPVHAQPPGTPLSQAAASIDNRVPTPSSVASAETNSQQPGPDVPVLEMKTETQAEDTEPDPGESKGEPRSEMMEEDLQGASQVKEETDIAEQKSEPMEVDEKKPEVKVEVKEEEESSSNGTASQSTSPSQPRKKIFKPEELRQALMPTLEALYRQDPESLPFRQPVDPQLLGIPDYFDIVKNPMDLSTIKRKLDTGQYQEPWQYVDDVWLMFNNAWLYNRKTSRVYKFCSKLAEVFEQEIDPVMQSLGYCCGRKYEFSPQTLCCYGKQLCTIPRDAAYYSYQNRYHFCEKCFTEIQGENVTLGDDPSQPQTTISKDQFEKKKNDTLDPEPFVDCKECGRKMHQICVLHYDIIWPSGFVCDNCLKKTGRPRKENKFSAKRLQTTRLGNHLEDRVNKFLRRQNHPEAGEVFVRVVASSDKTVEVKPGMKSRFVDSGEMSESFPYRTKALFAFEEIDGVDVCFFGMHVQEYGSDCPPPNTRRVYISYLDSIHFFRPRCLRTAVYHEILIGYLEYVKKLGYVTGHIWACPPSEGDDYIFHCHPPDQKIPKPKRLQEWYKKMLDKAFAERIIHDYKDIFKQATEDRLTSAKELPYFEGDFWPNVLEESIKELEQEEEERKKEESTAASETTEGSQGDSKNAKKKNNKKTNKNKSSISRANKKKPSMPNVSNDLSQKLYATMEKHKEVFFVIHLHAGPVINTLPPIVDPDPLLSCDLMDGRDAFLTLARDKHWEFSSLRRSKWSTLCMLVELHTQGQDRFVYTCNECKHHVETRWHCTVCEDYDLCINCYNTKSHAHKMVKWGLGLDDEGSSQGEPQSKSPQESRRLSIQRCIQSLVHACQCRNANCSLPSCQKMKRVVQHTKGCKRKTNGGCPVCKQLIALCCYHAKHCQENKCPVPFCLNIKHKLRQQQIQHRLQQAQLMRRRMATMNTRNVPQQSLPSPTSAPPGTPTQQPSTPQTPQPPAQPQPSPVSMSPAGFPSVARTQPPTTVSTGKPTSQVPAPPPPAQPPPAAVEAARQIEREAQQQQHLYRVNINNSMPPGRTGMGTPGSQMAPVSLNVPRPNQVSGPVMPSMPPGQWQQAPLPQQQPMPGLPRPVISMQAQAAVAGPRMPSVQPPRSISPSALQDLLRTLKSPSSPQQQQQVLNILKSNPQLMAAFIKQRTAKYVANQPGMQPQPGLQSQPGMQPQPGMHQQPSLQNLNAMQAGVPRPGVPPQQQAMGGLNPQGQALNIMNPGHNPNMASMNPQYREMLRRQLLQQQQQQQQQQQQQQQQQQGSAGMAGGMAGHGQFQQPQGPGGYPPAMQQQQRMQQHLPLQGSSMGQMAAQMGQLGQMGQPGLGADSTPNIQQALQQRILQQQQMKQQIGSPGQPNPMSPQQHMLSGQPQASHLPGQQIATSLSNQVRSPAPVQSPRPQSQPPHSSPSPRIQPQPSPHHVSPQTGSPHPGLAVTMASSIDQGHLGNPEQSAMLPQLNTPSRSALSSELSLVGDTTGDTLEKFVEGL

## CC(=O)N1CCc2c(c(N3CCCc4cc(-c5cnn(C)c5)c(C)cc43)nn2C2CCN(CC3CCN(c4ccc(C(=O)N[C@H]5CC[C@H](Oc6ccc(C#N)c(Cl)c6)CC5)nn4)CC3(C)C)CC2)C1 (stereo partly drawn) [Compound 282, 6-[4-[[4-[5-acetyl-3-[7-methyl-6-(1-methylpyrazol-4-yl)-3,4-dihydro-2H-quinolin-1-yl]-6,7-dihydro-4H-pyrazolo[4,3-c]pyridin-1-yl]-1-piperidyl]methyl]-3,3-dimethyl-1-piperidyl]-N-[4-(3-chloro-4-cyano-phenoxy)cyclohexyl]pyridazine-3-carboxamide]
AR / CBP ternary complex; [1]
  EC50: < 1 nM
VCaP cells
  IC50: 0.1 to 1 nM

## CC(=O)N1CCc2c(c(N3CCCc4cc(-c5cnn(C)c5)ncc43)nn2C2CCN(C(=O)C3CCN(c4ccc(C(=O)N[C@H]5CC[C@H](Oc6ccc(C#N)c(Cl)c6)CC5)nn4)CC3)CC2)C1 [Compound 67, 6-[4-[4-[5-acetyl-3-[6-(1-methylpyrazol-4-yl)-3,4-dihydro-2H-1,7-naphthyridin-1-yl]-6,7-dihydro-4H-pyrazolo[4,3-c]pyridin-1-yl]piperidine-1-carbonyl]-1-piperidyl]-N-[4-(3-chloro-4-cyano-phenoxy)cyclohexyl]pyridazine-3-carboxamide]
AR / CBP ternary complex; [1]
  EC50: < 1 nM
VCaP cells
  IC50: 0.1 to 1 nM

## CC(=O)N1CCc2c(c(N3CCCc4cc(-c5cnn(C)c5)c(C(F)F)cc43)nn2C2CCN(C3CN(c4ccc(C(=O)N[C@H]5CC[C@H](Oc6ccc(C#N)c(Cl)c6)CC5)nn4)C3)CC2)C1 [Compound 206, 6-[3-[4-[5-acetyl-3-[7-(difluoromethyl)-6-(1-methylpyrazol-4-yl)-3,4-dihydro-2H-quinolin-1-yl]-6,7-dihydro-4H-pyrazolo[4,3-c]pyridin-1-yl]-1-piperidyl]azetidin-1-yl]-N-[4-(3-chloro-4-cyano-phenoxy)cyclohexyl]pyridazine-3-carboxamide]
AR / CBP ternary complex; [1]
  EC50: < 1 nM
VCaP cells
  IC50: ≤ 0.1 nM

## CC(=O)N1CCc2c(c(N3CCCc4cc(-c5cnn(C)c5)c(C)cc43)nn2C2CCN(CC3CCN(c4ccc(C(=O)N[C@H]5CC[C@H](Oc6ccc(C#N)c(C)c6)CC5)nn4)CC3(C)C)CC2)C1 (stereo partly drawn) [Compound 293, 6-[4-[[4-[5-acetyl-3-[7-methyl-6-(1-methylpyrazol-4-yl)-3,4-dihydro-2H-quinolin-1-yl]-6,7-dihydro-4H-pyrazolo[4,3-c]pyridin-1-yl]-1-piperidyl]methyl]-3,3-dimethyl-1-piperidyl]-N-[4-(4-cyano-3-methyl-phenoxy)cyclohexyl]pyridazine-3-carboxamide]
AR / CBP ternary complex; [1]
  EC50: < 1 nM
VCaP cells
  IC50: ≤ 0.1 nM

## COC(=O)N1c2ccc3c(nc(Cc4ccccc4)n3[C@@H]3CCC[C@H](OC4CCN(c5ccc(C(=O)N[C@H]6CC[C@H](Oc7ccc(C#N)c(Cl)c7)CC6)nn5)CC4)C3)c2CC[C@@H]1C [Compound 244, methyl (7S)-2-benzyl-3-[3-[[1-[6-[[4-(3-chloro-4-cyano-phenoxy)cyclohexyl]carbamoyl]pyridazin-3-yl]-4-piperidyl]oxy]cyclohexyl]-7-methyl-8,9-dihydro-7H-imidazo[4,5-f]quinoline-6-carboxylate]
AR / CBP ternary complex; [1]
  EC50: < 1 nM
VCaP cells
  IC50: 0.1 to 1 nM

## CC(=O)N1CCc2c(c(N3CCCc4cc(-c5cnn(C)c5)c(C(F)F)cc43)nn2C2CCN(C(=O)CC3CCN(c4ccc(C(=O)N[C@H]5CC[C@H](N(C)c6ccc(C#N)c(Cl)c6)CC5)cc4)CC3)CC2)C1 [Compound 13, 4-[4-[2-[4-[5-acetyl-3-[7-(difluoromethyl)-6-(1-methylpyrazol-4-yl)-3,4-dihydro-2H-quinolin-1-yl]-6,7-dihydro-4H-pyrazolo[4,3-c]pyridin-1-yl]-1-piperidyl]-2-oxo-ethyl]-1-piperidyl]-N-[4-(3-chloro-4-cyano-N-methyl-anilino)cyclohexyl]benzamide]
AR / CBP ternary complex; read-out: Average Ternary Complex, treated 1.5 hours, rabbit CBP or p300 antibody detection
  EC50: < 1 nM
VCaP cells
  IC50: 0.1 to 1 nM
